{"source": "patent US6858589B2", "about": "“Methods of and compositions for potentiating the action of agents active on cell wall sites of the susceptible bacteria” (priority 1996, dated 2005)", "key": {"[1]": {"system": "E. coli NCTC 10418", "assay": "Kill kinetics and regrowth of E. coli after gentamicin bolus pre-exposure followed by maintained cephazolin", "type": "cell-based, Escherichia coli", "settings": "then cephazolin 0 mg/L", "source_text": "In comparative experiments described in the examples herein, a reference strain of Escherichi coli (E. coli NCTC 10418) was exposed to constant concentrations of cephazolin in the culture medium (see FIGS. 1A and IIA).\nThe experimental work described herein involved testing bacterial response while changing aminoglycoside concentrations with time in the test tube, and mimics closely measurements made in man under clinical conditions (Bastone E B, Li S C, Ioannides-Demos L L, Spicer J., McLean A J, “Kill kinetics and regrowth patterns of E. coli exposed to gentamicin concentration-time profiles simulating in vivo bolus or infusion dosing”, Antimicrob Agents Chemother. 37:914-917, 1993).\nThe form of this profile is governed in vivo by distribution into tissue from the central circulation. In in vitro experiments, gentamicin was removed (T=0 time) by centrifugation and washing with antibiotic-free medium. The incubation was reconstituted with media containing 0 mg/l, 1 mg/l or 2 mg/l cephazolin (see FIG. IA).\nIn FIG. IB, it can be seen that the pattern of growth of control organisms (not exposed to antibiotic) is designated by the dotted line ( - - - ), while the growth patterns of test organisms are represented by the solid lines with symbols indicating each type of treatment or test (FIG. IB)."}, "[2]": {"system": "blood culture isolate of cMRSA", "assay": "MIC and MBC for the cMRSA isolate", "type": "cell-based, Staphylococcus aureus", "settings": "mecA positive", "description": "The student test was used for statistical analysis with a significant level of 0.05, it was performed using the Sigma Stat 32 program (SPSS Inc 1992-1997)."}}}
{"substance": "gentamicin", "values": [{"measurement": "BACTERIAL COUNTS", "setting": "[1]; 8 mg/L bolus gentamicin, 2 h", "result": "1.32 ± 0.69", "unit": "log10 cfu/mL"}, {"measurement": "BACTERIAL COUNTS", "setting": "[1]; 8 mg/L bolus gentamicin, 8 h", "result": "4.91 ± 0.70", "unit": "log10 cfu/mL"}, {"measurement": "BACTERIAL COUNTS", "setting": "[1]; 8 mg/L bolus gentamicin, 24 h", "result": "8.88 ± 0.11", "unit": "log10 cfu/mL"}, {"measurement": "BACTERIAL COUNTS", "setting": "[1]; 8 mg/L bolus gentamicin, −0.5 h", "result": "5.87 ± 0.35", "unit": "log10 cfu/mL"}, {"measurement": "BACTERIAL COUNTS", "setting": "[1]; 12 mg/L bolus gentamicin, 2 h", "result": "0.69 ± 0.87", "unit": "log10 cfu/mL"}, {"measurement": "BACTERIAL COUNTS", "setting": "[1]; 12 mg/L bolus gentamicin, 8 h", "result": "4.54 ± 1.15", "unit": "log10 cfu/mL"}, {"measurement": "BACTERIAL COUNTS", "setting": "[1]; 12 mg/L bolus gentamicin, 24 h", "result": "8.80 ± 0.05", "unit": "log10 cfu/mL"}, {"measurement": "BACTERIAL COUNTS", "setting": "[1]; 12 mg/L bolus gentamicin, −0.5 h", "result": "6.10 ± 0.26", "unit": "log10 cfu/mL"}, {"measurement": "BACTERIAL COUNTS", "setting": "[1]; 16 mg/L bolus gentamicin, 2 h", "result": "0.48 ± 0.76", "unit": "log10 cfu/mL"}, {"measurement": "BACTERIAL COUNTS", "setting": "[1]; 16 mg/L bolus gentamicin, 8 h", "result": "3.85 ± 1.24", "unit": "log10 cfu/mL"}, {"measurement": "BACTERIAL COUNTS", "setting": "[1]; 16 mg/L bolus gentamicin, 24 h", "result": "8.79 ± 0.05", "unit": "log10 cfu/mL"}, {"measurement": "BACTERIAL COUNTS", "setting": "[1]; 16 mg/L bolus gentamicin, −0.5 h", "result": "5.85 ± 0.050", "unit": "log10 cfu/mL"}, {"measurement": "BACTERIAL COUNTS", "setting": "[1]; 20 mg/L bolus gentamicin, 2 h", "result": "NGD"}, {"measurement": "BACTERIAL COUNTS", "setting": "[1]; 20 mg/L bolus gentamicin, 8 h", "result": "3.15 ± 0.734", "unit": "log10 cfu/mL"}, {"measurement": "BACTERIAL COUNTS", "setting": "[1]; 20 mg/L bolus gentamicin, 24 h", "result": "8.81 ± 0.04", "unit": "log10 cfu/mL"}, {"measurement": "BACTERIAL COUNTS", "setting": "[1]; 20 mg/L bolus gentamicin, −0.5 h", "result": "5.89 ± 0.03", "unit": "log10 cfu/mL"}, {"measurement": "MBC", "setting": "[2]", "result": 4, "unit": "µg/mL"}, {"measurement": "MIC", "setting": "[2]", "result": 1, "unit": "µg/mL"}]}
